Patent publication US6890708B2, “Method for improving the quality of sperm for artificial insemination of animals” (priority 2000, dated 2005)

What was measured:
boar spermatozoa [1] = assay: Sperm viability in vitro (motility, acrosome morphology), Example I; assay type: cell-based, pig
Protocol: Aliquots of 80 μl of the PMN suspension (see, PMN isolation and preparation of PMNs) in TM or TM-s, with either intact or inactivated complement, were transferred to a 96-well polystyrene microtest plate. To each well, 20 μl of sperm suspension (see, preparation of semen samples) was added and the microtest plate was placed in a humidified incubator at 38° C. with 5% CO2 in air. […] The samples were incubated with gentle swirling on a test plate shaker. After 15, 30, 45, 60 or 90 min., samples were quantitatively transferred into tubes containing an equal volume of 40 mg ml^−1 heparin (Sigma) in PBS. The heparin facilitates dissociation of agglutinated PMNs. The samples were thoroughly mixed, left for 15 min., and mixed again. Subsamples of 75 μl were fixed by addition of 25 μl of 2% (v/v) glutaraldehyde (Fluka, Brunschwig chemie, Amsterdam, The Netherlands) in PBS. “Blank” samples, i.e., sperm without PMNs (80 μl TM-s mixed with 20 μl sperm suspension), were incubated in parallel to monitor sperm survival during the treatment. “Reference” samples, i.e., frozen-thawed (killed) semen, were incubated in parallel with the PMNs as a reference for the phagocytotic activity of the PMNs. The frozen-thawed semen was taken from a large stock of semen from one ejaculate and washed 3 times in PBS prior to use.
For evaluation of phagocytosis, wet mounts of the fixed samples were examined with a combination of phase-contrast and fluorescence microscopy (Olympus BH2, Tokyo, Japan) at 400× magnification. The mounts enabled observation and counting of fluorescently labeled spermatozoa inside and outside the phagocytes. By focusing at different levels in the mount, spermatozoa that were located above or below the PMN could be distinguished from those that were phagocytosed. […] Two hundred spermatozoa were evaluated and classified as inside or outside the PMN (i.e., phagocytosed or not phagocytosed). The same fixed mounts were used to assess the acrosome morphology of the non-phagocytosed spermatozoa at the moment of fixation. One hundred cells were classified using phase-contrast microscopy at 400× magnification, as NAR (normal apical ridge), NAR' (slightly altered normal apical ridge), DAR (damaged apical ridge), MAR (missing apical ridge) and LAC (loose acrosomal cap), as described by Pursel et al. (Pursel V G, Schulman L L and Johnson L A, 1978, Distribution and morphology of fresh and frozen-thawed sperm in the reproductive tract of gilts after insemination Biology of Reproduction 19 69-76.)

sows = assay: Example III Series 2: embryos and accessory sperm after insemination of sows; assay type: in vivo, pig
Protocol: Series 2: Batches of sows (parity 2-13) received hCG at 84 hours after weaning. The sows were inseminated at 16 hours after hCG administration (on average 26 hours, ranging from 21-28 hours, before ovulation as observed by transrectal ultrasonography) or inseminated at 4 hours after ovulation. […] The sows were slaughtered at 115 (112-120) hours after ovulation. The embryos were flushed, examined morphologically, and the number of accessory sperm were counted.

boar spermatozoa [2] = assay: Sperm viability in vitro (motility, acrosome morphology), Example I; assay type: cell-based, pig; remark: listed apart in the source
[3] = Exp. 1, after adding active compound and pre-incubation 30 min. at 38° C.
[4] = Exp. 1, blank samples without PMN, phagocytosis time 60 min.
[5] = Exp. 1, blank samples without PMN, preincubated 30 min. at 38° C., phagocytosis time 30 min.
[6] = Exp. 2, 0.2 mM, after adding active compound, without pre-incubation
[7] = Exp. 2, 0.2 mM, blank samples without PMN, without pre-incubation, phagocytosis time 30 min.
[8] = Exp. 2, 0.5 mM, after adding active compound, after pre-incubation
[9] = Exp. 2, 0.5 mM, after adding active compound, without pre-incubation
[10] = Exp. 2, 0.5 mM, blank samples without PMN, after pre-incubation
[11] = Exp. 2, 0.5 mM, blank samples without PMN, without pre-incubation, phagocytosis time 30 min.
[12] = Exp. 2, 1 mM, after adding active compound, after pre-incubation
[13] = Exp. 2, 1 mM, after adding active compound, without pre-incubation
[14] = Exp. 2, 1 mM, blank samples without PMN, after pre-incubation
[15] = Exp. 2, 1 mM, blank samples without PMN, without pre-incubation, phagocytosis time 30 min.
[16] = Exp. 2, 2 mM, after adding active compound, after pre-incubation
[17] = Exp. 2, 2 mM, after adding active compound, without pre-incubation
[18] = Exp. 2, 2 mM, blank samples without PMN, after pre-incubation
[19] = Exp. 2, 2 mM, blank samples without PMN, without pre-incubation, phagocytosis time 30 min.
[20] = Exp. 3, 1 mM, after pre-incubation of sperm 30 min. at 38° C.
[21] = Exp. 3, 1 caffeine, blank samples without PMN, after pre-incubation at 38° C., phagocytosis time 30 min.

Cn1c(=O)c2c(ncn2C)n(C)c1=O [caffeine, 1,3,7-Trimethylxanthine]
% DAR (boar spermatozoa [1]; [3]): 30% | % LAC (boar spermatozoa [1]; [3]): 15% | % MAR (boar spermatozoa [1]; [3]): 02% | % NAR (boar spermatozoa [1]; [3]): 53% | % LAC (boar spermatozoa [1]; [4]): 22% | % MAR (second value of NAR-MAR-MAR-LAC) (boar spermatozoa [1]; [4]): 36% | % MAR (third value of NAR-MAR-MAR-LAC) (boar spermatozoa [1]; [4]): 05% | % NAR (boar spermatozoa [1]; [4]): 37% | % LAC (boar spermatozoa [1]; [5]): 21% | % MAR (second value of NAR-MAR-MAR-LAC) (boar spermatozoa [1]; [5]): 39% | % MAR (third value of NAR-MAR-MAR-LAC) (boar spermatozoa [1]; [5]): 03% | % NAR (boar spermatozoa [1]; [5]): 37% | % DAR (boar spermatozoa [1]; [6]): 12% | % LAC (boar spermatozoa [1]; [6]): 03% | % MAR (boar spermatozoa [1]; [6]): 01% | % motile sperm (boar spermatozoa [1]; [6]): 80% | % DAR (boar spermatozoa [1]; [7]): 12% | % LAC (boar spermatozoa [1]; [7]): 03% | % MAR (boar spermatozoa [1]; [7]): 00% | % NAR (boar spermatozoa [1]; [7]): 85% | % DAR (boar spermatozoa [1]; [8]): 14% | % LAC (boar spermatozoa [1]; [8]): 02% | % MAR (boar spermatozoa [1]; [8]): 01% | % NAR (boar spermatozoa [1]; [8]): 83% | % motile sperm (boar spermatozoa [1]; [8]): 80% | % DAR (boar spermatozoa [1]; [9]): 12% | % LAC (boar spermatozoa [1]; [9]): 02% | % MAR (boar spermatozoa [1]; [9]): 02% | % NAR (boar spermatozoa [1]; [9]): 84% | % motile sperm (boar spermatozoa [1]; [9]): 80% | % DAR (boar spermatozoa [1]; [10]): 12% | % LAC (boar spermatozoa [1]; [10]): 02% | % MAR (boar spermatozoa [1]; [10]): 01% | % NAR (boar spermatozoa [1]; [10]): 85% | % DAR (boar spermatozoa [1]; [11]): 10% | % LAC (boar spermatozoa [1]; [11]): 03% | % MAR (boar spermatozoa [1]; [11]): 00% | % NAR (boar spermatozoa [1]; [11]): 87% | % DAR (boar spermatozoa [1]; [12]): 16% | % LAC (boar spermatozoa [1]; [12]): 06% | % MAR (boar spermatozoa [1]; [12]): 01% | % NAR (boar spermatozoa [1]; [12]): 77% | % motile sperm (boar spermatozoa [1]; [12]): 80% | % DAR (boar spermatozoa [1]; [13]): 09% | % LAC (boar spermatozoa [1]; [13]): 03% | % MAR (boar spermatozoa [1]; [13]): 01% | % NAR (boar spermatozoa [1]; [13]): 87% | % motile sperm (boar spermatozoa [1]; [13]): 80% | % DAR (boar spermatozoa [1]; [14]): 21% | % LAC (boar spermatozoa [1]; [14]): 06% | % MAR (boar spermatozoa [1]; [14]): 01% | % NAR (boar spermatozoa [1]; [14]): 72% | % DAR (boar spermatozoa [1]; [15]): 10% | % LAC (boar spermatozoa [1]; [15]): 05% | % MAR (boar spermatozoa [1]; [15]): 00% | % NAR (boar spermatozoa [1]; [15]): 85% | % DAR (boar spermatozoa [1]; [16]): 20% | % LAC (boar spermatozoa [1]; [16]): 05% | % MAR (boar spermatozoa [1]; [16]): 02% | % NAR (boar spermatozoa [1]; [16]): 73% | % motile sperm (boar spermatozoa [1]; [16]): 80% | % DAR (boar spermatozoa [1]; [17]): 13% | % LAC (boar spermatozoa [1]; [17]): 04% | % MAR (boar spermatozoa [1]; [17]): 01% | % NAR (boar spermatozoa [1]; [17]): 82% | % motile sperm (boar spermatozoa [1]; [17]): 80% | % DAR (boar spermatozoa [1]; [18]): 24% | % LAC (boar spermatozoa [1]; [18]): 05% | % MAR (boar spermatozoa [1]; [18]): 01% | % NAR (boar spermatozoa [1]; [18]): 70% | % DAR (boar spermatozoa [1]; [19]): 12% | % LAC (boar spermatozoa [1]; [19]): 08% | % MAR (boar spermatozoa [1]; [19]): 01% | % NAR (boar spermatozoa [1]; [19]): 79% | % DAR (boar spermatozoa [1]; [20]): 24% | % LAC (boar spermatozoa [1]; [20]): 08% | % MAR (boar spermatozoa [1]; [20]): 01% | % NAR (boar spermatozoa [1]; [20]): 67% | % DAR (boar spermatozoa [1]; [21]): 24% | % LAC (boar spermatozoa [1]; [21]): 08% | % MAR (boar spermatozoa [1]; [21]): 02% | % NAR (boar spermatozoa [1]; [21]): 66% | % fertilized oocytes, in words (sows): tended to be higher | % motile sperm (boar spermatozoa [2]; [3]): 60% | % NAR (boar spermatozoa [2]; [6]): 84% | % motile sperm (boar spermatozoa [2]; [20]): 65%
